{
  "source": "paper PMC7153278",
  "about": "“Discovery of Membrane-Bound Pyrophosphatase Inhibitors Derived from an Isoxazole Fragment” (ACS Medicinal Chemistry Letters, 2020)",
  "key": {"[1]": {"target": "Thermotoga maritima mPPase (TmPPase) (Thermotoga maritima, UniProt Q9S5X0)", "sequence (Q9S5X0 whole entry)": "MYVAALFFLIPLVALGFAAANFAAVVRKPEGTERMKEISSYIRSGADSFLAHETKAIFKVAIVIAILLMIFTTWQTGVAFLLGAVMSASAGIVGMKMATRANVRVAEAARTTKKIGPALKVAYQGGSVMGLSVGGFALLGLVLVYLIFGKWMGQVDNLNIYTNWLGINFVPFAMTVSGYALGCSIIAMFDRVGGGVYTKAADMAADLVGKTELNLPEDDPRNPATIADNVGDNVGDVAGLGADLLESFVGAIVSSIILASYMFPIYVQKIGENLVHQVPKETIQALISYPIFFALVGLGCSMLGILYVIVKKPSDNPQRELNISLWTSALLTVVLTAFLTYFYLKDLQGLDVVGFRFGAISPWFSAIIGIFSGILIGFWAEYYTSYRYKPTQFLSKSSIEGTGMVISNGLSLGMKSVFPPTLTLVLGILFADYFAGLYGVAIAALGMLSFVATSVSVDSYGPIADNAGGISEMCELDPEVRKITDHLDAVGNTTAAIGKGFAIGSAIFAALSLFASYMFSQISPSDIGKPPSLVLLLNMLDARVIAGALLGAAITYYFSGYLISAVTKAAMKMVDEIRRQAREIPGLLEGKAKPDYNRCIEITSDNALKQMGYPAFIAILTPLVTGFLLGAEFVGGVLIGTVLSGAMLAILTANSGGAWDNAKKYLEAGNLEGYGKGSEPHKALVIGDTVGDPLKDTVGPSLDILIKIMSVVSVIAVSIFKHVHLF", "assay": "TmPPase inhibition assay (96-well plate, orthophosphate determination)", "type": "biochemical", "settings": "computed using the pIC50 and the Heavy Atom Count (LEHA) normalization method, Discovery Studio", "experimental": "The inhibition assay was measured in 96 well plate assay as previously reported.5,6 Briefly, 1 µL of purified TmPPase (13 mg/mL) was reactivated in 99 µL of reactivation buffer (20 mM 2-(N-morpholino) ethanesulfonic acid (MES) pH 6.5, 3.5% (v/v) glycerol, 2 mM dithiothreitol (DTT), 4.5% dodecyl maltoside (DDM) and 12 mg/mL L-α-phosphatidylcholine from soybean) and incubated at 55 °C for 15 min. For the assay, to each tube strips, 0.2 µL of the reactivated enzyme was added to 14.8 µL of reaction buffer (200 mM Tris-Cl pH 8.0, 8.0 mM MgCl2, 333 mM KCl, and 67 mM NaCl) and 25 µL of inhibitor. The reaction mixtures were sealed with an adhesive sealing sheet (Thermo Scientific) and incubated at 71 °C for 5 min. The reactions were started with the addition of 10 µL of 2 mM sodium pyrophosphate, further incubation at 71 °C for 5 min and stopped by placing the reaction mixtures on ice for 10 min. The color development was done with the addition of ammonium heptamolybdate + ascorbic acid solution on ice for 10 min and then 90 µL of arsenic solution, at room temperature, for a minimum of 30 min. 180 µL of each reaction mixtures was then transferred into a clear 96 well polystyrene microplate and the absorbance was measured at 860 nm using a microplate spectrophotometer (MultiSkan Go, Thermo Scientific). The pilot inhibitor screening of 16 phosphate-mimicking fragments was done at 100 μM inhibitor concentration. Further screening was done with three different concentrations; 1 μM, 5 μM and 50 μM for soluble compounds, and 1 μM, 5 μM, and 20 μM for sparingly soluble compounds.6 The best hits were validated using 8 concentrations in triplicate in TmPPase.\nThe potent hits 12k and 12l compounds were then tested on the P. falciparum (PfPPase-VP1) membrane fractions expressed in baculovirus-infected insect cells (the expression method and further enzyme analysis will be described in more detail elsewhere). Briefly, to each tube strips, 2.4 µL of PfPPase-VP1 membrane fraction (5 mg/mL) was added into 12.6 µL of reaction buffer (200 mM Tris-Cl pH 8.0, 8.0 mM MgCl2, 333 mM KCl, 67 mM NaCl, 3.3 mM NaF, and 17 μM Gramicidin D) and 25 µL of inhibitor. The reaction mixtures were incubated at 30 °C for 5 min and the assay was started by the addition of 10 µL of 2 mM sodium pyrophosphate and further incubation at 30 °C for 10 min. The reaction termination and color development were done as before.\nThe in vitro anti-plasmodial activity assay strain 3D7 was maintained in culture as described previously.7 Briefly, parasites were cultured in O+ human erythrocytes at 5% haematocrit in RPMI - 1640 medium supplemented with 0.5% Albumax II (Gibco, Carlsbad, CA, USA), 200 μM hypoxanthine (Sigma, St. Louis, MO, USA) and 20 μg/mL gentamycin (Gibco). Parasites were synchronized with the sorbitol method as described. 8 Test compound was dissolved in DMSO to make a stock solution of 10 mM. Two -fold serial dilutions of the test compound were made in the culture medium to cover the range of 400 µM – 400 nM. Fifty microliters of each dilution were mixed in 96 well plate with 150 µL of 2% haematocrit of 0.5% parasitemia (ring stage). DMSO concentration in the highest compound concentration w as 0.1%. After 72 h incubation at 37 °C, the parasite growth was quantified using fluorescent SYBR Green I ® -based assay as described. 9 The half-maximal inhibitory concentration (IC 50) of the test compound was assessed using the non-linear regression fit model in Prism 7 (GraphPad Software). The potent anti-malarial drug, artemisinin, was use in parallel as a positive control. Each concentration of the test compound was tested in duplicate and the assay was repeated three times. The mean and standard deviation of the three repeats were used to estimate the IC50.\nIC50 determinations were done using R 3.6.110 and the n-parameter logistic regression (nplr) package11 version 0.1-7. In this package, the weighted nplr, given x (compound concentrations) and […]"}, "[2]": {"target": "P. falciparum vacuolar H+-translocating pyrophosphatase (PfPPase-VP1) (Plasmodium falciparum, UniProt Q8IKR1)", "sequence (Q8IKR1 entry or part of it)": "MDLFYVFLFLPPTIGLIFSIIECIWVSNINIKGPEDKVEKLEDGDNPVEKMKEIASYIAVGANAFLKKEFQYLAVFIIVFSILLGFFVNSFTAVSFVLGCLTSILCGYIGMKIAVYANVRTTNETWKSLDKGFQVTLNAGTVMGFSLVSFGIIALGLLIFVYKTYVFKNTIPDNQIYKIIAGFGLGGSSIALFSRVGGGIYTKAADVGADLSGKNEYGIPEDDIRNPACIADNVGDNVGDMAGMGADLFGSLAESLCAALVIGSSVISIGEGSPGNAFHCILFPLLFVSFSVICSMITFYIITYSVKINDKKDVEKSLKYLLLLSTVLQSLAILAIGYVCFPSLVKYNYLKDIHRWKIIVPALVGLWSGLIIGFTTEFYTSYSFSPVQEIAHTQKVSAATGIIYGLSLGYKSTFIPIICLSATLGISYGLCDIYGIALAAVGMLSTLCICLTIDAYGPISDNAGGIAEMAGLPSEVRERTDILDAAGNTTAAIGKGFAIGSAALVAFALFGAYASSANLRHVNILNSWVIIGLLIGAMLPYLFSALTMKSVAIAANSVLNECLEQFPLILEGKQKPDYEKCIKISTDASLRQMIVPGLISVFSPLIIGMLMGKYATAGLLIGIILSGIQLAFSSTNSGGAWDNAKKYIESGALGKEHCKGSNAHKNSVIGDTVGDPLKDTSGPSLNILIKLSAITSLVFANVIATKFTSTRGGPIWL", "assay": "PfPPase-VP1 inhibition assay on membrane fractions from baculovirus-infected insect cells", "type": "biochemical", "settings": "PfPPase-VP1 in the membrane", "experimental": "We then addressed the potential of 12k and 12l for translation to pathogenic proteins. These analogues differ by replacement of two methyl groups by two tert-butyl groups. In order to do so, we expressed the PfPPase-VP1 gene (PF3D7_1456800) in baculovirus-infected insect cells and performed the inhibition assay on the PfPPase-VP1 in the membrane (the method and further analysis will be described in more detail elsewhere).\nThe inhibition assay was measured in 96 well plate assay as previously reported.5,6 Briefly, 1 µL of purified TmPPase (13 mg/mL) was reactivated in 99 µL of reactivation buffer (20 mM 2-(N-morpholino) ethanesulfonic acid (MES) pH 6.5, 3.5% (v/v) glycerol, 2 mM dithiothreitol (DTT), 4.5% dodecyl maltoside (DDM) and 12 mg/mL L-α-phosphatidylcholine from soybean) and incubated at 55 °C for 15 min. For the assay, to each tube strips, 0.2 µL of the reactivated enzyme was added to 14.8 µL of reaction buffer (200 mM Tris-Cl pH 8.0, 8.0 mM MgCl2, 333 mM KCl, and 67 mM NaCl) and 25 µL of inhibitor. The reaction mixtures were sealed with an adhesive sealing sheet (Thermo Scientific) and incubated at 71 °C for 5 min. […] 180 µL of each reaction mixtures was then transferred into a clear 96 well polystyrene microplate and the absorbance was measured at 860 nm using a microplate spectrophotometer (MultiSkan Go, Thermo Scientific). […]"}},
  "data": [
    {"molecule": "CC(C)(C)c1cc(-c2cc(C(=O)Oc3ccccc3Br)no2)cc(C(C)(C)C)c1", "note": "[Compound 12l]", "values": [
      {"measurement": "LE (ligand efficiency)", "setting": "[1]", "value": 0.17},
      {"measurement": "IC50, PfPPase-VP1 activity", "setting": "[2]", "value": "did not show inhibition at the tested concentrations"}
    ]}
  ]
}
